ChEMBL document CHEMBL1158103, “Theopapuamide, a cyclic depsipeptide from a Papua New Guinea lithistid sponge Theonella swinhoei” (J Nat Prod, 2006)
pEC50: −log10 of the molar value.

Columns and labels:
[1] = Cytotoxicity against human CEM-TART cells after 72 hrs by MTT assay; format: cell-based
[2] = Cytotoxicity against human HCT 116 cells after 48 hrs by MTT assay; format: functional, cell-based; settings: HCT-116, 48 h

In the case of `CCC(C)CC(C)C(O)C(C)C(=O)N[C@H](CN)C(=O)NC(C(O)C(O)C(=O)N[C@H](C(=O)N[C@H]1C(=O)N[C@H]([C@@H](C)O)C(=O)N[C@H](CCCN)C(=O)N[C@@H](CC(C)C)C(=O)N(C)[C@@H](CCC(N)=O)C(=O)N[C@@H]([C@@H](OC)C(N)=O)C(=O)N[C@H](CC(N)=O)C(=O)N(C)[C@@H](CC(C)C)C(=O)O[C@@H]1C)[C@H](C)C(C)C(N)=O)C(C)(C)O` (some centres not stated) [THEOPAPUAMIDE], the pEC50 [1] was 6.30 and the pEC50 [2] was 6.05.
